Legend:
[1] = molecular target: human Factor XIa (Homo sapiens (Human), UniProt P03951); assay: Factor XIa Assay (fluorogenic substrate GPR-AFC); assay type: biochemical; settings: Factor XIa (FXIa)
Experimental: (§1) The effectiveness of a compound of the present invention as an inhibitor of Coagulation Factor XIa can be determined using a relevant purified serine protease, and an appropriate synthetic substrate. The rate of hydrolysis of the chromogenic or fluorogenic substrate by the relevant serine protease was measured both in the absence and presence of compounds of the present invention. Assays were conducted at room temperature or at 37° C. […] A decrease in the rate of fluorescence change in the presence of inhibitor is indicative of enzyme inhibition. Such methods are known to one skilled in the art. The results of this assay are expressed as the half-maximal inhibitory concentrations (IC50), or the inhibitory constant, Ki.
Compounds were pre-incubated for 30 minutes at 25° C. with human (0.04 nM) Factor XIa in 50 mM HEPES buffer with 150 mM sodium chloride, 5 mM calcium chloride, 0.1% PEG 8000, pH 7.4. […] The % inhibition for each data point was calculated from the data and analyzed using the log (inhibitor) vs. response four parameters equation to determine the half-maximal inhibitory concentrations (IC50). The IC50 were converted to equilibrium inhibitory constants (Ki) using the Cheng-Prusoff equation.

[2] = molecular target: Human plasma kallikrein (Homo sapiens (Human), UniProt P03952); assay: Kallikrein Assay (fluorogenic substrate Acetyl-K-P-R-AFC); assay type: biochemical; settings: Plasma Kallikrein (PKal)
Experimental: as §1, with “Kallikrein” for “Coagulation Factor XIa”
Kallikrein determinations were made in 50 mM HEPES buffer at pH 7.4 containing 150 mM NaCl, 5 mM CaC12, and 0.1% PEG 8000 (polyethylene glycol; Fisher Scientific). Determinations were made using purified Human plasma kallikrein at a final concentration of 0.5 nM (Enzyme Research Laboratories) and the synthetic substrate, Acetyl-K-P-R-AFC (Sigma # C6608) at a concentration of […].
Times required to achieve equilibration between enzyme and inhibitor were determined in control experiments. […] IC50 was determined by inflection point from a four parameter logistic curve fit. Ki was calculated using the Cheng Prusoff equation, Ki = IC50/(1+([S]/Km)).

Chain of Human plasma kallikrein (P03952 391-638): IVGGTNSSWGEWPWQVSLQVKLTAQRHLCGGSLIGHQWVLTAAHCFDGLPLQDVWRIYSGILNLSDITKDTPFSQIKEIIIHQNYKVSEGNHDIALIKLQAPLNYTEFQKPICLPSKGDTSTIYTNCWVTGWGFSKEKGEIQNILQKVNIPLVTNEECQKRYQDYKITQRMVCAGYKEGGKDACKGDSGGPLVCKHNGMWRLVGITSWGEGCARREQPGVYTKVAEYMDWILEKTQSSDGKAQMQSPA
Chain of Human plasma kallikrein (P03952 20-390 partner): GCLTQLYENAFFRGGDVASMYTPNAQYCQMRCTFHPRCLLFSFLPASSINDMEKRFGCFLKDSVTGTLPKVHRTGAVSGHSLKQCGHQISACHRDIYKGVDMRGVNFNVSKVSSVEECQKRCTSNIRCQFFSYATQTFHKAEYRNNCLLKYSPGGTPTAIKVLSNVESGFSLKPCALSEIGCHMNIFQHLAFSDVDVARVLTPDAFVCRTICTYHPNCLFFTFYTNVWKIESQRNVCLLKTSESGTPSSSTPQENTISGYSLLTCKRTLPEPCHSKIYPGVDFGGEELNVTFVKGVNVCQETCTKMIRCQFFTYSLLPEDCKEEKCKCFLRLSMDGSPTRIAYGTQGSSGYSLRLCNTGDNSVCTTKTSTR
Chain of human Factor XIa (P03951 388-625 limits assumed): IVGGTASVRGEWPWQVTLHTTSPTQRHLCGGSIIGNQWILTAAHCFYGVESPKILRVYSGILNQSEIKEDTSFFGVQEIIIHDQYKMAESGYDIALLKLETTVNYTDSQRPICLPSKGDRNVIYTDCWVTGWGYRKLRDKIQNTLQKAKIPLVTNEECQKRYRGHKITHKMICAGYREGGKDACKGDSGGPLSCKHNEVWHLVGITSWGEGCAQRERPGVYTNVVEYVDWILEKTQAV
Chain of human Factor XIa (P03951 19-387 partner limits assumed): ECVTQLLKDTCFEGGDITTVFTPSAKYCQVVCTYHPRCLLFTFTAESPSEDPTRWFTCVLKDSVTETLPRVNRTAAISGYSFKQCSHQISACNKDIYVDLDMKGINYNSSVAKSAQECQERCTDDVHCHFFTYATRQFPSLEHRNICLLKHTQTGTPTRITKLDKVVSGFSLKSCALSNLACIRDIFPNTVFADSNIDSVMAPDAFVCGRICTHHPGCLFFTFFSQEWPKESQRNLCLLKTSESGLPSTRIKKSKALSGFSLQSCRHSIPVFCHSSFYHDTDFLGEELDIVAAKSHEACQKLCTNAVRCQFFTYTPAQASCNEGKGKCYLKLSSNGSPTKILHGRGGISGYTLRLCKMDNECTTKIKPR

Row | IC50 [1] | IC50 [2] | SMILES
1 | 1160 nM | 1.9 nM | Cc1nc(C(C)n2cc(NC(=O)c3cncc(-c4c(C(F)F)ccc(Cl)c4F)n3)cn2)cnc1N1C[C@H]2C[C@H]2C1=O (single isomer, unassigned) [Example 12, 6-(3-Chloro-6-(difluoromethyl)-2-fluorophenyl)-N-(1-((S or R)-1-(6-methyl-5-((1R,5S)-2-oxo-3-azabicyclo[3.1.0]hexan-3-yl)pyrazin-2-yl)ethyl)-1H-pyrazol-4-yl)pyrazine-2-carboxamide]
2 | 2820 nM | 0.5 nM | Cc1nc(C(C)n2cc(NC(=O)c3cncc(-c4c(C(F)F)ccc(Cl)c4F)n3)cn2)cnc1N1C[C@H]2C[C@H]2C1=O (single isomer, unassigned) [Example 13, 6-(3-Chloro-6-(difluoromethyl)-2-fluorophenyl)-N-(1-((R or S)-1-(6-methyl-5-((1R,5S)-2-oxo-3-azabicyclo[3.1.0]hexan-3-yl)pyrazin-2-yl)ethyl)-1H-pyrazol-4-yl)pyrazine-2-carboxamide]
3 | 550 nM | 0.8 nM | Cc1ncc(-c2c(C(F)F)ccc(Cl)c2F)nc1C(=O)Nc1cnn(C(C)c2cnc(N3C[C@H]4C[C@H]4C3=O)c(C)n2)c1 (single isomer, unassigned) [Example 14, 6-(3-Chloro-6-(difluoromethyl)-2-fluorophenyl)-3-methyl-N-(1-((S or R)-1-(6-methyl-5-((1R,5S)-2-oxo-3-azabicyclo[3.1.0]hexan-3-yl)pyrazin-2-yl)ethyl)-1H-pyrazol-4-yl)pyrazine-2-carboxamide]
4 | 992 nM | 0.4 nM | Cc1ncc(-c2c(C(F)F)ccc(Cl)c2F)nc1C(=O)Nc1cnn(C(C)c2cnc(N3C[C@H]4C[C@H]4C3=O)c(C)n2)c1 (single isomer, unassigned) [Example 15, 6-(3-Chloro-6-(difluoromethyl)-2-fluorophenyl)-3-methyl-N-(1-((R or S)-1-(6-methyl-5-((1R,5S)-2-oxo-3-azabicyclo[3.1.0]hexan-3-yl)pyrazin-2-yl)ethyl)-1H-pyrazol-4-yl)pyrazine-2-carboxamide]
5 | 772 nM | 1.9 nM | Cc1nc(C(C)n2cc(NC(=O)c3cncc(-c4c(OC(F)F)ccc(Cl)c4F)n3)cn2)cnc1N1C[C@H]2C[C@H]2C1=O (single isomer, unassigned) [Example 16, 6-(3-Chloro-6-(difluoromethoxy)-2-fluorophenyl)-N-(1-((S or R)-1-(6-methyl-5-((1R,5S)-2-oxo-3-azabicyclo[3.1.0]hexan-3-yl)pyrazin-2-yl)ethyl)-1H-pyrazol-4-yl)pyrazine-2-carboxamide]
6 | 1740 nM | 0.7 nM | Cc1nc(C(C)n2cc(NC(=O)c3cncc(-c4c(OC(F)F)ccc(Cl)c4F)n3)cn2)cnc1N1C[C@H]2C[C@H]2C1=O (single isomer, unassigned) [Example 17, 6-(3-Chloro-6-(difluoromethoxy)-2-fluorophenyl)-N-(1-((R or S)-1-(6-methyl-5-((1R,5S)-2-oxo-3-azabicyclo[3.1.0]hexan-3-yl)pyrazin-2-yl)ethyl)-1H-pyrazol-4-yl)pyrazine-2-carboxamide]
7 | 4080 nM | 19.5 nM | Cc1nc(C(C)n2cc(NC(=O)c3cncc(-c4c(C(F)(F)F)ccc(Cl)c4F)n3)cn2)cnc1N1C[C@H]2C[C@H]2C1=O (single isomer, unassigned) [Example 18]
8 | > 10000 nM | 3.7 nM | Cc1nc(C(C)n2cc(NC(=O)c3cncc(-c4c(C(F)(F)F)ccc(Cl)c4F)n3)cn2)cnc1N1C[C@H]2C[C@H]2C1=O (single isomer, unassigned) [Example 19, 6-(3-Chloro-2-fluoro-6-(trifluoromethyl)phenyl)-N-(1-((R or S)-1-(6-methyl-5-((1R,5S)-2-oxo-3-azabicyclo[3.1.0]hexan-3-yl)pyrazin-2-yl)ethyl)-1H-pyrazol-4-yl)pyrazine-2-carboxamide]
9 | > 10000 nM | 28.5 nM | CC(c1cnc(N2C[C@H]3C[C@H]3C2=O)cn1)n1cc(NC(=O)c2cncc(-c3c(C(F)F)ccc(Cl)c3F)n2)cn1 (single isomer, unassigned) [Example 20, 6-(3-Chloro-6-(difluoromethyl)-2-fluorophenyl)-N-(1-((S or R)-1-(5-((1R,5S)-2-oxo-3-azabicyclo[3.1.0]hexan-3-yl)pyrazin-2-yl)ethyl)-1H-pyrazol-4-yl)pyrazine-2-carboxamide]
10 | 2040 nM | 9.6 nM | Cc1ncc(-c2c(C(F)F)ccc(Cl)c2F)nc1C(=O)Nc1cnn(C(C)c2cnc(N3C[C@H]4C[C@H]4C3=O)nc2)c1 (single isomer, unassigned) [Example 29, 6-(3-Chloro-6-(difluoromethyl)-2-fluorophenyl)-3-methyl-N-(1-((S or R)-1-(2-((1R,5S)-2-oxo-3-azabicyclo[3.1.0]hexan-3-yl)pyrimidin-5-yl)ethyl)-1H-pyrazol-4-yl)pyrazine-2-carboxamide]
11 | 2830 nM | 1.8 nM | Cc1ncc(-c2c(C(F)F)ccc(Cl)c2F)nc1C(=O)Nc1cnn(C(C)c2cnc(N3C[C@H]4C[C@H]4C3=O)nc2)c1 (single isomer, unassigned) [Example 30, 6-(3-Chloro-6-(difluoromethyl)-2-fluorophenyl)-3-methyl-N-(1-((R or S)-1-(2-((1R,5S)-2-oxo-3-azabicyclo[3.1.0]hexan-3-yl)pyrimidin-5-yl)ethyl)-1H-pyrazol-4-yl)pyrazine-2-carboxamide]
12 | > 10000 nM | 6.3 nM | CC(c1cnc(N2C[C@H]3C[C@H]3C2=S)nc1)n1cc(NC(=O)c2cncc(-c3c(C(F)F)ccc(Cl)c3F)n2)cn1 (single isomer, unassigned) [Example 31, 6-(3-Chloro-6-(difluoromethyl)-2-fluorophenyl)-N-(1-((S or R)-1-(2-((1R,5S)-2-thioxo-3-azabicyclo[3.1.0]hexan-3-yl)pyrimidin-5-yl)ethyl)-1H-pyrazol-4-yl)pyrazine-2-carboxamide]
13 | > 10000 nM | 16.4 nM | CC(c1cnc(N2C[C@H]3C[C@H]3C2=S)nc1)n1cc(NC(=O)c2cncc(-c3c(C(F)F)ccc(Cl)c3F)n2)cn1 (single isomer, unassigned) [Example 32, 6-(3-Chloro-6-(difluoromethyl)-2-fluorophenyl)-N-(1-((R or S)-1-(2-((1R,5S)-2-thioxo-3-azabicyclo[3.1.0]hexan-3-yl)pyrimidin-5-yl)ethyl)-1H-pyrazol-4-yl)pyrazine-2-carboxamide]
14 | 1520 nM | 0.7 nM | Cc1nc(N2C[C@H]3C[C@H]3C2=O)ncc1C(C)n1cc(NC(=O)c2nc(-c3c(C(F)F)ccc(Cl)c3F)cnc2C)cn1 (single isomer, unassigned) [Example 42]
15 | 4510 nM | 73.4 nM | Cc1nc(N2C[C@H]3C[C@H]3C2=O)ncc1C(C)n1cc(NC(=O)c2nc(-c3c(C(F)F)ccc(Cl)c3F)cnc2C)cn1 (single isomer, unassigned) [Example 43]
16 | 1380 nM | 2.4 nM | Cc1ncc(-c2c(C(F)F)ccc(Cl)c2F)nc1C(=O)Nc1cnn(C(C)c2cnc(N3C[C@H]4C[C@H]4C3=O)c(F)c2)c1 (single isomer, unassigned) [Example 51, 6-(3-Chloro-6-(difluoromethyl)-2-fluorophenyl)-N-(1-((S or R)-1-(5-fluoro-6-((1R,SS)-2-oxo-3-azabicyclo[3.1.0]hexan-3-yl)pyridin-3-yl)ethyl)-1H-pyrazol-4-yl)-3-methylpyrazine-2-carboxamide]

Reference: US20230286958A1, “PLASMA KALLIKREIN INHIBITORS” (Merck Sharp & Dohme LLC, priority 2020, published 2023)
